# Molecular target: T1, Sex hormone-binding globulin (Homo sapiens, UniProt P04278)
# T1 sequence (P04278 whole entry): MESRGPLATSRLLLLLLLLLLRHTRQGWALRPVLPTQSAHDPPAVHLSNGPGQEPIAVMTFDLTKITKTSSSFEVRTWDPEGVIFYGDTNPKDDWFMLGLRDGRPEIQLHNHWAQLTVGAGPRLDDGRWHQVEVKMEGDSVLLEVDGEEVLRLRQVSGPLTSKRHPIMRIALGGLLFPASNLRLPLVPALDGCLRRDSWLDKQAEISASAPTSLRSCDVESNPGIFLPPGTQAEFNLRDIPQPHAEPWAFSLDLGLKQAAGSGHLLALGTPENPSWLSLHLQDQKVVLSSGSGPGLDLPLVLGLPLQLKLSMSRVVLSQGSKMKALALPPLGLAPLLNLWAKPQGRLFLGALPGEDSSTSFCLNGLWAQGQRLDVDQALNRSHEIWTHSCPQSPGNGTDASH
# Test: Displacement of [3H]5alpha dihydrotestosterone from human sex hormone binding globulin
row,SMILES,Kd [µM]
1,O=C1C[C@@H](c2ccc(O)cc2)Oc2cc(O)cc(O)c21 (stereo in doubt; 90) [NARINGENIN],0.955
2,C[C@@H]1C[C@H]2C[C@@H](O)CC[C@]2(C)[C@H]2CC[C@@]3(C)[C@@H](CC[C@]3(C)O)[C@H]12,0.00347
3,C[C@]12CC[C@@H]3c4cc(I)c(O)cc4CC[C@H]3[C@@H]1CC[C@@H]2O,0.000479
4,CC(=O)O[C@]1(C(C)=O)CC[C@H]2[C@@H]3C[C@H](C)C4=CC(=O)CC[C@]4(C)[C@H]3CC[C@@]21C [MEDROXYPROGESTERONE ACETATE],0.631
5,C[C@]12CC[C@@H](O)C[C@@H]1CC[C@@H]1[C@@H]2CC[C@]2(C)C(=O)CC[C@@H]12 [ANDROSTERONE],0.0708
6,C#C[C@]1(O)CC[C@H]2[C@@H]3CCC4=CC(=O)CCC4=C3C=C[C@@]21CC [GESTRINONE],0.00776
7,CC(=O)[C@@]1(O)CC[C@H]2[C@@H]3CCC4=CC(=O)CC[C@]4(C)[C@H]3CC[C@@]21C [HYDROXYPROGESTERONE],0.1
8,COc1cc(/C=N/CCc2ccccc2)ccc1O,0.589
9,C[C@]12CC[C@H]3[C@@H](CC[C@H]4CC(=O)C[C@H](CCCCCCN)[C@@]43C)[C@@H]1CC[C@@H]2O,0.0295
10,C[C@@H]1C[C@H]2CC(=O)CC[C@]2(C)[C@H]2CC[C@]3(C)[C@@H](O)CC[C@H]3[C@H]12,0.000417
11,C[C@@H]1CC2=CC(=O)C=C[C@]2(C)[C@H]2CC[C@]3(C)[C@@H](O)CC[C@H]3[C@H]12,0.00437

# Reference: ChEMBL document CHEMBL1142400, “An updated steroid benchmark set and its application in the discovery of novel nanomolar ligands of sex hormone-binding globulin” (J Med Chem, 2008)
